Source: patent US20250197420A1, “MACROCYCLIC COMPOUNDS, COMPOSITIONS, AND METHODS OF USING THEREOF” (Sionna Therapeutics Inc., priority 2022, published 2025)

Target: T1, Purified recombinant NBD1 (Homo sapiens, UniProt P13569)
T1 construct: Purified recombinant NBD1 was produced using previously described methods; made in house
Experiment: Aggregation analysis using differential static light scattering (DSLS): thermal stability of NBD1
Assay type: binding
Conditions: NBD1 0.2 mg/ml; Tagg of compound well minus average Tagg of DMSO control wells
Method: Purified recombinant NBD1 was produced using previously described methods (A. Schmidt, J. L. Mendoza, P. J. Thomas (2011) Biochemical and Biophysical Approaches to Probe CFTR Structure (365-376) M. D. Amaral, K. Kunzelmann (eds.), Cystic Fibrosis, Methods in Molecular Biology 741, Springer Science+Business Media). The effect of test compounds on thermal stability of NBD1 was evaluated by differential static light scattering (DSLS) using the Harbinger Stargazer-384 instrument (Epiphyte Three, Toronto, Canada). Test compounds were dissolved and diluted to desired concentrations in 100% DMSO. The compounds or DMSO controls (100 nL) were stamped into wells of a […] low volume optical plate (Corning Inc., Corning, NY) using the Echo 555 acoustic liquid handler (Labcyte Inc., San Jose, CA).
NBD1 protein was diluted to 0.2 mg/ml in S200 buffer (50 mM Tris-HCl, 150 mM NaCl, 5 mM MgCl2, 2 mM ATP, 2 mM DTT, pH7.6) containing 1% glycerol. 10 uL of protein solution was aliquoted into the 384-well plate harboring the test compounds and 10 uL mineral oil was overlaid onto the protein solution, using the epMotion robotic liquid handler (Eppendorf North America, Hauppauge, NY). After placing into the Stargazer instrument, the plate was heated at 1° C. per minute to 70° C. Images were captured from 25° C. to 70° C. every 0.5° C. At the end of the experiment run, instrument software integrated image files and analyzed data automatically. A […] regression curve was generated for each well, representing the increase in light scattering over time. A temperature of aggregation (Tagg) was calculated based on the inflection point of the curve. To better compare data across experiments the average Tagg for DMSO control wells was calculated and subtracted from values for wells containing compounds to obtain a “ΔTagg” value. These ΔTagg values reflect stabilizing efficacy of the compounds. As set forth in Table 2 below, an ΔTagg value less than or equal to 5° C. is marked “A”; a value above 5° C. and less than or equal to 10° C. is marked “B”; a value greater than 10° C. and less than or equal to 25° C. is marked “C”.

T1 sequence (P13569 423-646 limits assumed): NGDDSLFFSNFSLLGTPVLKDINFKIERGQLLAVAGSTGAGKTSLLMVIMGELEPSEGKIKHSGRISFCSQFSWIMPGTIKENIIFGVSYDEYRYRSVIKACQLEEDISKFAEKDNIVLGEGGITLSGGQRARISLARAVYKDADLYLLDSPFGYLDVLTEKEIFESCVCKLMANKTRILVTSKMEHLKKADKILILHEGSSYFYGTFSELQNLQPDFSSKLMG

## CC1CNC(=O)CCc2c(c(F)cc3[nH]ccc23)Oc2ccc(F)c(c2)-c2ncc([nH]2)C(C)(c2cccc(CCC(=O)O)c2)COC1 (centres unmarked) [Compound 23, 3-[3-(23,29-Difluoro-6,10-dimethyl-13-oxo-8,25-dioxa-3,12,20,31-tetrazapentacyclo[24.3.1.12,5.016,24.017,21]hentriaconta-1(30),2,4,16,18,21,23,26,28-nonaen-6-yl)phenyl]propanoic acid]
  DSLS (ΔTagg): C (a value greater than 10 °C and less than or equal to 25 °C is marked “C”)

## CN1CC(=O)CCCC(C)(c2cccc(CCC(=O)O)c2)c2cnc([nH]2)-c2cc(ccc2F)Oc2c(F)cc3[nH]ccc3c2CCC1=O (centres unmarked) [Compound 105, 3-[3-(23,29-Difluoro-6,12-dimethyl-10,13-dioxo-25-oxa-3,12,20,31-tetrazapentacyclo[24.3.1.12,5.016,24.017,21]hentriaconta-1(30),2,4,16,18,21,23,26,28-nonaen-6-yl)phenyl]propanoic acid]
  DSLS (ΔTagg): C (a value greater than 10 °C and less than or equal to 25 °C is marked “C”)

## CN1CC(O)CCCC(C)(c2cccc(CCC(=O)O)c2)c2cnc([nH]2)-c2cc(ccc2F)Oc2c(F)cc3[nH]ccc3c2CCC1=O (centres unmarked) [Compound 104, 3-[3-(23,29-Difluoro-10-hydroxy-6,12-dimethyl-13-oxo-25-oxa-3,12,20,31-tetrazapentacyclo[24.3.1.12,5.016,24.017,21]hentriaconta-1(30),2,4,16,18,21,23,26,28-nonaen-6-yl)phenyl]propanoic acid]
  DSLS (ΔTagg): C (a value greater than 10 °C and less than or equal to 25 °C is marked “C”)

## CC1(C)CCC(c2cccc(CCC(=O)O)c2F)c2cnc([nH]2)-c2cc(ccc2F)Oc2c(F)cc3[nH]ccc3c2CCC(=O)NC1 (centres unmarked) [Compound 32, 3-[3-(22,28-Difluoro-9,9-dimethyl-12-oxo-24-oxa-3,11,19,30-tetrazapentacyclo[23.3.1.12,5.015,23.016,20]triaconta-1(29),2,4,15,17,20,22,25,27-nonaen-6-yl)-2-fluoro-phenyl]propanoic acid]
  DSLS (ΔTagg): B (a value above 5 °C and less than or equal to 10 °C is marked “B”)

## O=C(O)CCc1cccc(C2CCC(F)(F)CNC(=O)CCc3c(c(F)cc4[nH]ccc34)Oc3ccc(F)c(c3)-c3ncc2[nH]3)c1 (centres unmarked) [Compound 15, 3-[3-(9,9,22,28-Tetrafluoro-12-oxo-24-oxa-3,11,19,30-tetrazapentacyclo[23.3.1.12,5.015,23.016,20]triaconta-1(28),2,4,15(23),16(20),17,21,25(29),26-nonaen-6-yl)phenyl]propanoic acid]
  DSLS (ΔTagg): C (a value greater than 10 °C and less than or equal to 25 °C is marked “C”)

## CCOC(=O)CCc1cccc(C2(C)CCCC(C)(C)CN(C)C(=O)CCc3c(c(F)cc4[nH]ccc34)Oc3ccc(F)c(c3)-c3ncc2[nH]3)c1 (single isomer, unassigned) [Compound 48A, ethyl 3-[3-(23,29-difluoro-6,10,10,12-tetramethyl-13-oxo-25-oxa-3,12,20,31-tetrazapentacyclo-[24.3.1.12,5.016,24.017,21]hentriaconta-1(30),2,4,16,18,21,23,26,28-nonaen-6-yl)phenyl]propanoate]
  DSLS (ΔTagg): A (an ΔTagg value less than or equal to 5 °C is marked “A”)

## CC(Cc1cccc(C2CCCCCN(C)C(=O)CCc3c(c(F)cc4[nH]ccc34)Oc3ccc(F)c(c3)-c3ncc2[nH]3)c1)C(=O)O (centres unmarked) [Compound 22, 3-[3-(23,29-Difluoro-12-methyl-13-oxo-25-oxa-3,12,20,31-tetrazapentacyclo[24.3.1.12,5.016,24.017,21]hentriaconta-1(30),2,4,16,18,21,23,26,28-nonaen-6-yl)phenyl]-2-methyl-propanoic acid]
  DSLS (ΔTagg): C (a value greater than 10 °C and less than or equal to 25 °C is marked “C”)

## CC(Cc1cccc(C2CCCCCNC(=O)CCc3c(c(F)cc4[nH]ccc34)Oc3ccc(F)c(c3)-c3ncc2[nH]3)c1)C(=O)O (centres unmarked) [Compound 7, 3-[3-(23,29-Difluoro-13-oxo-25-oxa-3,12,20,31-tetrazapentacyclo-[24.3.1.12,5.016,24.017,21]hentriaconta-1(30),2,4,16,18,21,23,26,28-nonaen-6-yl)phenyl]-2-methyl-propanoic acid]
  DSLS (ΔTagg): C (a value greater than 10 °C and less than or equal to 25 °C is marked “C”)

## O=C(O)CCc1cccc(C2CCCCCCNC(=O)CCc3c(c(F)cc4[nH]cnc34)Oc3ccc(F)c(c3)-c3ncc2[nH]3)c1 (centres unmarked) [Compound 5, 3-[3-(24,30-Difluoro-14-oxo-26-oxa-3,13,19,21,32-pentazapentacyclo-[25.3.1.12,5.017,25.018,22]dotriaconta-1(31),2,4,17,19,22,24,27,29-nonaen-6-yl)phenyl]propanoic acid]
  DSLS (ΔTagg): B (a value above 5 °C and less than or equal to 10 °C is marked “B”)

## O=C1CCc2c(c(F)cc3[nH]ccc23)Oc2ccc(F)c(c2)-c2ncc([nH]2)C(c2ccccc2)CCCCS(=O)(=O)N1 (centres unmarked) [Compound 13, 23,29-Difluoro-11,11-dioxo-6-phenyl-25-oxa-116-thia-3,12,20,31-tetrazapentacyclo[24.3.1.12,5.016,24.017,21]hentriaconta-1(30),2,4,16,18,21,23,26,28-nonaen-13-one]
  DSLS (ΔTagg): C (a value greater than 10 °C and less than or equal to 25 °C is marked “C”)

## CN1CCOCC(C)(c2cccc(CCC(=O)O)c2)c2cnc([nH]2)-c2cc(ccc2F)Oc2c(F)cc3[nH]ccc3c2CCC1=O (centres unmarked) [Compound 19, 3-[3-(22,28-Difluoro-6,11-dimethyl-12-oxo-8,24-dioxa-3,11,19,30-tetrazapentacyclo[23.3.1.12,5.015,23.016,20]triaconta-1(29),2,4,15,17,20,22,25,27-nonaen-6-yl)phenyl]propanoic acid]
  DSLS (ΔTagg): C (a value greater than 10 °C and less than or equal to 25 °C is marked “C”)

## [2H]C([2H])([2H])n1nc2nc1-c1cc(ccc1F)Oc1c(F)cc3[nH]ccc3c1CCC(=O)N(C)CC(C)(C)CCCC2(C)c1cccc(CCCO)c1 (centres unmarked) [Compound 78, 23,29-difluoro-6-[3-(3-hydroxypropyl)phenyl]-6,10,10,12-tetramethyl-3-(trideuteriomethyl)-25-oxa-3,4,12,20,31-pentazapentacyclo-[24.3.1.12,5.016,24.017,21]hentriaconta-1(30),2(31),4,16,18,21,23,26,28-nonaen-13-one]
  DSLS (ΔTagg): A (an ΔTagg value less than or equal to 5 °C is marked “A”)

## O=C(O)CCc1cccc(C2CCCCOC(=O)NCCc3c(c(F)cc4[nH]ccc34)Oc3ccc(F)c(c3)-c3ncc2[nH]3)c1F (centres unmarked) [Compound 81, 3-[3-(23,29-Difluoro-12-oxo-11,25-dioxa-3,13,20,31-tetrazapentacyclo[24.3.1.12,5.016,24.017,21]hentriaconta-1(30),2,4,16(24),17(21),18,22,26,28-nonaen-6-yl)-2-fluoro-phenyl]propanoic acid]
  DSLS (ΔTagg): C (a value greater than 10 °C and less than or equal to 25 °C is marked “C”)

## CN1CC(C)(C)COCC(C)(c2cccc(CCC(=O)O)c2)c2cnc([nH]2)-c2cc(ccc2F)Oc2c(F)cc3[nH]ccc3c2CCC1=O (racemic) [Compound 20A, 3-[3-(23,29-Difluoro-6,10,10,12-tetramethyl-13-oxo-8,25-dioxa-3,12,20,31-tetrazapentacyclo[24.3.1.12,5.016,24.017,21]hentriaconta-1(30),2,4,16,18,21,23,26,28-nonaen-6-yl)phenyl]propanoic acid]
  DSLS (ΔTagg): C (a value greater than 10 °C and less than or equal to 25 °C is marked “C”)

## CC(CC(=O)O)c1cccc(C2CCCCCN(C)C(=O)CCc3c(c(F)cc4[nH]ccc34)Oc3ccc(F)c(c3)-c3ncc2[nH]3)c1 (centres unmarked) [Compound 21, 3-[3-(23,29-Difluoro-12-methyl-13-oxo-25-oxa-3,12,20,31-tetrazapentacyclo[24.3.1.12,5.016,24.017,21]hentriaconta-1(30),2,4,16,18,21,23,26,28-nonaen-6-yl)phenyl]butanoic acid]
  DSLS (ΔTagg): C (a value greater than 10 °C and less than or equal to 25 °C is marked “C”)

## O=C1NCCc2c(c(F)cc3[nH]ccc23)Oc2ccc(F)c(c2)-c2ncc([nH]2)C(c2ccccc2F)CCCCO1 (centres unmarked) [Compound 82, 23,29-Difluoro-6-(2-fluorophenyl)-11,25-dioxa-3,13,20,31-tetrazapentacyclo[24.3.1.12,5.016,24.017,21]hentriaconta-1(30),2,4,16(24),17(21),18,22,26,28-nonaen-12-one]
  DSLS (ΔTagg): A (an ΔTagg value less than or equal to 5 °C is marked “A”)

## CC1(c2cccc(CCC(=O)O)c2)CCCC(=O)NCCCc2c(c(F)cc3[nH]ccc23)Oc2ccc(F)c(c2)-c2ncc1[nH]2 (centres unmarked) [Compound 17, 3-[3-(22,28-Difluoro-6-methyl-10-oxo-24-oxa-3,11,19,30-tetrazapentacyclo[23.3.1.12,5.015,23.016,20]triaconta-1(29),2,4,15,17,20,22,25,27-nonaen-6-yl)phenyl]propanoic acid]
  DSLS (ΔTagg): C (a value greater than 10 °C and less than or equal to 25 °C is marked “C”)
